In patent publication EP4800006A1, “NICOTINAMIDE PHOSPHORIBOSYL TRANSFERASE AGONIST AND USE THEREOF” (Nanjing Reju Therapeutics Co. Ltd., priority 2023, dated 2025):
≈ marks a conversion by molar mass, not a printed value.

Legend:
Solubility of compounds = assay type: physicochemical; details: acidic pH conditions
Method: The main objective of this example is to investigate the solubility of the compounds in Example 1.
Method: A certain amoun of NPL-00, NPL-000, and NPL-1 were weighed and transferred into centrifuge tubes, respectively. Solvent was added to each tube, and the pH value of the system was adjusted with hydrochloric acid and sodium hydroxide. The mixture was shaken for 30 s every 5 min, and the dissolution state was observed within 30 min. If incomplete dissolution was observed, additional solvent was supplemented, and the above operations were repeated until the compounds were completely dissolved, and the volume of solvent at this moment was recorded. The solubility of less than 0.1 mg/mL was defined as "insoluble."

mouse skin = test: NAD+ level in mouse skin after topical application; assay type: in vivo, C57BL/6 mice; details: 3% topical application to the skin, 6 hours, compared to the control group; FIG. 3
Method: The main objective of this example is to investigate the effect of the Compound NPL-1 in Example 1 on elevating NAD+ level in mouse skin via topical administration.
Method: Male C57BL/6 mice with 8-9 weeks old were treated with 3% of the Compound NPL-1 via topical application to the skin, and mouse skin samples were collected 6 hours later for NAD+ level detection.

C2C12 cells = test: Differentiation of C2C12 cells (MYH1 immunostaining); assay type: cell-based; details: 0.3 µM, 7 days, medium with 2% HBS, vs control group; FIG. 4
Method: The main objective of this example is to investigate the promotive effect of the compounds in Example 1 on the differentiation of muscle stem cells.
Method: C2C12 cells were selected and seeded into culture plates. After stabilization for 48 h, the medium was replaced with a medium containing 2% HBS to induce differentiation of the C2C12 cells. Meanwhile, the treatment group was treated with 0.3 µM NPL-1, while the control group was treated with an equivalent volume of the compound solvent. After continuous culture for 7 days, immunohistochemical staining was performed using MYH1 antibody, and the cell nuclei were stained with DAPI. Finally, the two channels were merged to analyze the degree of cell differentiation.

Hacat cells = test: ROS in UVA-irradiated Hacat cells (DCFH-DA fluorescence), antioxidation; assay type: cell-based; details: 10 µM, 24 h then UVA, vs model group, FIG. 8
Method: The main objective of this example is to investigate the antioxidation effect of the compounds in Example 1.
Method: Hacat cells were selected and seeded into culture plates. After stabilization for 24 h, the NPL-1 group was treated with 10 µM NPL-1, while the control group and model group were treated with an equivalent volume of the compound solvent, respectively. After 24 h of treatment, all groups except the control group were irradiated with UVA for modeling. At 0.5 h after the modeling was completed, the fluorescent probe DCFH-DA was added and incubated for 0.5 h, followed by fluorescence intensity measurement to evaluate the expression level of ROS.

[1] = system: Transgenic zebrafish with green fluorescent mitochondria; test: Mitochondrial function in zebrafish, cobalt chloride model; assay type: in vivo; details: 0.25%, 22 h then cobalt chloride 4 h, vs model group; FIG. 10
Method: The main objective of this example is to investigate the effect of the compounds in Example 1 on mitochondrial function.
Method: Transgenic zebrafish with green fluorescent mitochondria were placed in a 6-well plate. The NPL-4 group was treated with NPL-4 at a concentration of 0.25%, while the control group and model group were treated with an equivalent volume of the compound solvent. After treatment in the dark for 22 h, all groups except the control group were treated with cobalt chloride for modeling. Following incubation in the dark for additional 4 h, the fluorescence intensity of the zebrafish was detected.

tibialis anterior = test: CTX-induced muscle injury model (tibialis anterior, HE staining); assay type: in vivo, C57BL/6 mice; details: 3 mg/kg intraperitoneal once daily, 10 µM CTX into tibialis anterior, vs model group; FIG. 5
Method: The main objective of this example is to investigate the protective effect of the compounds in Example 1 in a muscle injury model. Method: Male C57BL/6 mice with 8-9 weeks old in the model group and the NPL-4 group were injected intraperitoneally with the corresponding solvent or compounds, respectively, for 1 consecutive week. Subsequently, 10 µM CTX was injected into the tibialis anterior for modeling. After another 7 days, the tibialis anterior was harvested for HE staining to evaluate the injury status of the tibialis anterior of the mice. The grouping was as follows: • Control group: 8 male C57BL/6 mice with 8-9 weeks old were treated with the same solvent as in the NPL-4 group via intraperitoneal injection once daily. One week later, normal saline was injected into the tibialis anterior for modeling, while intraperitoneal injection was continued. Seven days later, the tibialis anterior was harvested for HE staining. • Model group: 8 male C57BL/6 mice with 8-9 weeks old were treated with the same solvent as in the NPL-4 group via intraperitoneal injection once daily. One week later, 10 µM CTX was injected into the tibialis anterior for modeling, while intraperitoneal injection was continued. […]

HSF cells = test: p16 mRNA in UVA-irradiated HSF cells (qPCR), anti-aging; assay type: cell-based; details: 10 µM, 24 h then UVA, mRNA by qPCR, vs model group; FIG. 7
Method: The main objective of this example is to investigate the anti-aging effect of the compounds in Example 1.
Method: HSF cells were selected and seeded into culture plates. After stabilization for 24 h, the NPL-4 group was treated with 10 µM NPL-4, while the control group and model group were treated with an equivalent volume of the compound solvent, respectively. After 24 h of treatment, all groups except the control group were irradiated with UVA to induce cell senescence. The cells were then collected and RNA was extracted. The mRNA level of the senescence-associated gene p16 was determined using qPCR.

U2OS cells = test: Protective effect on U2OS cells against FK866-induced cytotoxicity (Cell Titer-Glo viability); assay type: cell-based; details: Homo sapiens, 10 nM FK866, test compound 10 µM, 72 h, viability relative to control minus that of model group, read-out: Percentage increase in cell viability
Method: The main objective of this example is to investigate the protective effects of the compounds in Example 1 against the cytotoxicity resulting from FK866-mediated reduction in NAD+ levels.
Method: U2OS cells were selected and seeded into culture plates. After cell stabilization for 1 day, 10 nM of FK866 was added to all groups except the control group to induce cell death. Meanwhile, the test compounds at a concentration of 10 µM were added to the corresponding drug treatment groups, respectively. An equivalent volume of the compound solvent was added to the control group and the model group, respectively. Following incubation for 72 h, Cell Titer-Glo Luminescent cell viability assay reagent (manufacturer: Promega) was added to each well. After mixing well and incubation for 10 minutes, luminescence was detected using a microplate reader with full-wavelength scanning. The pharmacological efficacy of the compounds, expressed as the percentage increase in cell viability, was calculated by subtracting the percentage of the cell viability in the model group relative to the control group from the percentage of the cell viability in the compound-treated group relative to the control group.

Wild-type zebrafish = test: DNA damage repair in zebrafish, hydrogen peroxide model (comet assay); assay type: in vivo; details: 0.25% for 5 days, DNA olive tail moment, vs model group, FIG. 11
Method: The main objective of this example is to investigate the repairing effect of the compounds in Example 1 on DNA damage.
Method: Wild-type zebrafish were placed in a 6-well plate. All groups except the control group were treated with hydrogen peroxide to establish a zebrafish DNA damage model. Meanwhile, the NPL-4 group was treated with 0.25% NPL-4 for 5 days, while the control group and model group were treated with an equivalent volume of the compound solvent. The medium was renewed daily. Subsequently, zebrafish samples were collected and ground to prepare cell suspensions. Electrophoresis was performed using a comet assay kit, and data were collected and analyzed using comet analysis software. The DNA olive tail moment value of zebrafish cells was analyzed to evaluate the degree of DNA damage.

With CC(C)(C)c1cccc(C#N)c1OCC(=O)Nc1ccc(O)cc1 [NPL-000] the solubility (Solubility of compounds) was < 100 µg/mL.
In the case of CC(C)(C)c1ccccc1OCC(=O)Nc1ccc(O)cc1 [NPL-00], the solubility (Solubility of compounds) is reported as < 100 µg/mL.
For CC(C)(C)c1ncccc1OCC(=O)Nc1ccc(O)cc1 [NPL-1], the “NAD+ level in the mouse skin” value (mouse skin) was “effectively elevated”, the solubility (Solubility of compounds) was 7000 µg/mL (≈ 23.3 mM) and the “expression level of MYH1” value (C2C12 cells) was “significantly higher”. The “expression level of ROS” value (Hacat cells) was “markedly decreased”.
For CC(=O)Nc1ccc(NC(=O)COc2cccnc2C(C)(C)C)cc1 [NPL-4], the mitochondrial fluorescence intensity [1] was “significantly enhanced”, the damaged area (tibialis anterior) was “significantly smaller” and the “expression of p16” value (HSF cells) was “markedly down-regulated”. For the same compound, the increase in cell viability over FK866 model group at 10 µM (U2OS cells) was 128% and the DNA damage (Wild-type zebrafish) was “significantly ameliorated”.
CC(C)(C)c1ncncc1CCC(=O)Nc1ccc(O)cc1 [NPL-51, 3-(4-(tert-butyl)pyrimidin-5-yl)-N-(4-hydroxyphenyl)propionamide] gave an increase in cell viability over FK866 model group at 10 µM (U2OS cells) of 105%.
In the case of CC(=O)Nc1ccc(NC(=O)CCc2nccnc2C(C)(C)C)cc1 [NPL-67, N-(4-acetaminophenyl)-3-(3-(tert-butyl)pyrazin-2-yl)propionamide], the increase in cell viability over FK866 model group at 10 µM (U2OS cells) is reported as 99.3%.
CC(=O)Nc1ccc(NC(=O)COc2nccnc2C(C)(C)C)cc1 [NPL-70, N-(4-acetaminophenyl)-2-((3-(tert-butyl)pyrazin-2-yl)oxy)acetamide] gave an increase in cell viability over FK866 model group at 10 µM (U2OS cells) of 112%.
CC(C)(C)c1nccnc1OCC(=O)Nc1ccc2[nH]c(=O)oc2c1 [NPL-71, 2-((3-(tert-butyl)pyrazin-2-yl)oxy)-N-(2-oxo-2,3-dihydrobenzo[d]oxazol-6-yl)acetamide] showed an increase in cell viability over FK866 model group at 10 µM (U2OS cells) of 106%.
CC(C)(C)c1nccnc1CCC(=O)Nc1ccc(O)cc1 [NPL-74, 3-(3-(tert-butyl)pyrazin-2-yl)-N-(4-hydroxyphenyl)propionamide] showed an increase in cell viability over FK866 model group at 10 µM (U2OS cells) of 98.6%.
In the case of CC(C)(C)c1nccnc1CCC(=O)Nc1ccc2[nH]c(=O)oc2c1 [NPL-76, 3-(3-(tert-butyl)pyrazin-2-yl)-N-(2-oxo-2,3-dihydrobenzo[d]oxazol-6-yl)propionamide], the increase in cell viability over FK866 model group at 10 µM (U2OS cells) is reported as 99%.
For CC(=O)Nc1ccc(NC(=O)COc2ncncc2C(C)(C)C)cc1 [NPL-79, 2-((5-(tert-butyl)pyrimidin-4-yl)oxy)-N-(4-(acetamido)phenyl)acetamide], the increase in cell viability over FK866 model group at 10 µM (U2OS cells) was 97.9%.
